Measurements as given in patent publication US7276606B2, “Phenantridine analogues and uses thereof” (4SC AG, priority 2004, dated 2007).

System: HaCaT keratinocytes
Assay: Influence on keratinocyte proliferation (HaCaT, Cell Titer Viability Assay)
Assay type: cell-based
Settings: Homo sapiens, 25 μM test compound, KBM/FCS, 1% DMSO, 48 hrs incubation, read-out: inhibition of keratinocyte proliferation compared to control experiments
Experimental: Influence of Compounds According to the Invention on Keratinocyte Proliferation
5×10^3 HaCaT keratinocytes were seeded into 60 wells of 96 well plates in 200 μl KBM/10% FCS and incubated for 24 hrs at 37° C. The test compounds were dissolved at 100 mM in DMSO. The test items were then diluted to a concentration of 25 μM in KBM/FCS with a final concentration of 1% DMSO. The test compounds, as well as the negative control for unstimulated cells (KBM/1% DMSO) and stimulated cells (KBM/FCS/1% DMSO), were added to the HaCaTs in triplicates and incubated for 48 hrs. At the end of the incubation period, the media was removed and cell numbers were determined with Cell Titer Viability Assay from Promega (#G7571/G7572) according to the manufacturer's instructions.

COc1cccc(C(=O)N2c3ccccc3-c3ccccc3C2c2c[nH]c3ccccc23)c1 (stereo not shown) [Example 11, [6-(1H-Indol-3-yl)-6H-phenanthridin-5-yl]-(3-methoxy-phenyl)-methanone]
inhibition at 25 µM: > 50%
